The values below come from ChEMBL document CHEMBL1770054, “Enediol mimics as inhibitors of the D-arabinose 5-phosphate isomerase (KdsD) from Francisella tularensis” (Bioorg Med Chem Lett, 2011).

Where “and” joins values, the source holds several entries; their conditions need not be identical. Equal entries are not always repeated.

The subject of one series is L6. As to the kind of experiment: Cytotoxicity against rat L6 cells. In kind it is cell-based.
The target in series [1] is T1, Arabinose 5-phosphate isomerase KdsD (Francisella tularensis subsp. tularensis (strain SCHU S4 / Schu 4), UniProt Q5NGP7).
T1 sequence (Q5NGP7 whole entry): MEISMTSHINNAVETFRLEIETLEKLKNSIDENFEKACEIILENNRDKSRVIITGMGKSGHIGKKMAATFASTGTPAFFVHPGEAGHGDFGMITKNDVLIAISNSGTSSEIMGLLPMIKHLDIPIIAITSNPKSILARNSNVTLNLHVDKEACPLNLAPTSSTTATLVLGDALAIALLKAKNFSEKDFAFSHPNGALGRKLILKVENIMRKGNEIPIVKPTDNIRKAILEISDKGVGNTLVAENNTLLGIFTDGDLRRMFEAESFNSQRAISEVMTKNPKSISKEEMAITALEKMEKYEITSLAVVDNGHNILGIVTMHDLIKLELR

The subject of a further series is Trypanosoma brucei. As to the kind of experiment: Antiparasitic activity against Trypanosoma brucei infected in rat L6 cells. In kind it is functional.
Series [2] addresses T2, Ribose-5-phosphate isomerase B (Mycobacterium tuberculosis, UniProt P9WKD7).
T2 sequence (P9WKD7 whole entry): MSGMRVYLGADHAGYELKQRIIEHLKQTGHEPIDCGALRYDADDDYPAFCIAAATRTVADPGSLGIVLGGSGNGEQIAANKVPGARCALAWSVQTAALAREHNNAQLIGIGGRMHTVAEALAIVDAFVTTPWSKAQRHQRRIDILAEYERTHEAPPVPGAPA
In words: Inhibition of Mycobacterium tuberculosis rpiB.

Series [3] in a line: Inhibition of Escherichia coli arabinose phosphate isomerase.
Series [4] in a line: Inhibition of xylose isomerase.
Series [5] has as its target Glucose-6-phosphate isomerase (Oryctolagus cuniculus, UniProt Q9N1E2). As to the kind of experiment: Inhibition of rabbit cytosolic phosphoglucose isomerase.
The target of series [6] is Triosephosphate isomerase (Homo sapiens, UniProt P60174). In words: Inhibition of Triosephosphate isomerase.
Triosephosphate isomerase, sequence (P60174 whole entry): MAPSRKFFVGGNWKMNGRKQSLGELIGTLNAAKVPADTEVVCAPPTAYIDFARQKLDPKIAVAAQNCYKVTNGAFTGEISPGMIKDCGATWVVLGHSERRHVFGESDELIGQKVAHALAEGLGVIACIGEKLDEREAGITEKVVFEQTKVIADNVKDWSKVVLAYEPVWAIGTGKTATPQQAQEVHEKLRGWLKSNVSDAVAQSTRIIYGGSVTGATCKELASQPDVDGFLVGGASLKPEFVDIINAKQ

For `CC(=O)O[C@H](COP(=O)(O)O)[C@@H](OC(C)=O)C(=O)NO`, the Activity in the series with L6 and with Trypanosoma brucei was 229 µM in each case. For the same compound, half-maximal inhibition in series [1] (IC50) required 7 µM. For `O=C(NO)[C@H](O)[C@H](O)COP(=O)(O)O`, in series [2], the Ki was 400 µM and 57 µM. In series [1], the IC50 was determined as 35 µM. As for `O=C(O)[C@H](O)[C@H](O)COP(=O)(O)O`, the 50% inhibitory concentration (IC50) in series [3] was 220 µM. For `O=C(NO)[C@H](O)[C@H](O)CO`, in series [4], the Ki came out at 0.1 µM. In other words, the sub-micromolar range. Take `O=C(NO)[C@@H](O)[C@H](O)[C@H](O)COP(=O)(O)O`: the Ki in series [5] came to 0.1 µM. This lies in the sub-micromolar range.

As to `NC(=O)[C@H](O)[C@H](O)COP(=O)(O)O`, the Ki in series [2] is > 30000 µM. In series [1], this compound gave an IC50 of 10 µM.

For `CC1(C)O[C@H](COP(=O)(O)O)[C@H](C(=O)NO)O1`, in series [1], the 50% inhibitory concentration (IC50) came to 3000 µM.

Regarding `O=C(COP(=O)(O)O)NO` [PHOSPHOGLYCOLOHYDROXAMATE], in series [6], the inhibitory constant (Ki) came to 4 µM.
